In patent US20260027117A1, “METHODS OF TREATING SMALL CELL LUNG CANCER” (Debiopharm International S.A., priority 2022, published 2026):

Columns and labels:
[1] = system: NCI-H446 SCLC tumor cells; experiment: NCI-H446 CDX model, tumor growth inhibition; format: in vivo, Balb/c nude mice; conditions: 16 day cycle; for TGI effects compared to vehicle: monotherapy, Compound of formula (I) 30 mg/kg QD 3 consecutive days a week P.O., carboplatin 50 mg/kg QW I.V.
Experimental: (§1) Female Balb/c nude mice were inoculated subcutaneously with 5×10^6 NCI-H446 SCLC tumor cells. Animals were randomized when tumor volume reached approximately 100-150 mm^3. Animals were treated with vehicle (0.5% methycellulose, 1% Tween 80 P.O. and saline I.V.), Compound of formula (I) formulated as a suspension in 0.5% methycellulose and 1% Tween 80 (30 mg/kg QD, 3 consecutive days a week, P.O.), or Carboplatin (50 mg/kg QW, I.V.) administered over a 16 day cycle, either alone or in combination (5 animals per group). In combination arms, Compound of formula (I) was administered 2 hours prior to chemotherapy. Tumor growth was monitored twice weekly by caliper measurement and tumor volume calculated using the equation V=(L×W×W)/2, where V is tumor volume, L is tumor length (the longest tumor dimension) and W is tumor width (the longest tumor dimension perpendicular to L). During routine monitoring, the animals were checked for any effects of tumor growth and treatments on behavior such as mobility, food and water consumption, body weight gain/loss 3 times a week, eye/hair matting and any other abnormalities. Mortality and observed clinical signs were recorded for individual animals.

[2] = system: SCLC; conditions: SCLC patients; in combination with olaparib, or with carboplatin in platinum-refractory SCLC (BALTIC study, Arm B, NCT02937818); preliminary data; cited from earlier work
[3] = NCI-H446 CDX model, tolerability (body weight); format: in vivo; conditions: in combination with carboplatin 50 mg/kg QW I.V.; 16 day cycle
Experimental: as §1

[4] = system: SCLC organoids; experiment: SCLC organoid models, Cell Titer Glow 3D viability and Bliss synergy; format: cell-based; conditions: for bliss synergy score: vs carboplatin/etoposide (5:1 ratio) as a single treatment
Experimental: SCLC organoids from 16 models were prepared as follows: SCLC organoid models were expanded in 6-well plates, each well containing 2 ml of organoid medium. On the day of organoid seeding 20 μL 100× Dispase solution was added to each well and the plates were incubated at 37° C. for 30 min. Organoids were passed through a pre-wet 100 μm filter into a 50 ml plastic tube and subsequently further filtered through a wet 20 μm filter. Organoids were resuspended in culture media and counted. Matrigel was added to a final concentration of 5% v/v and 40 μL of cell suspensions add to each well of a 384-well plate by Multidrop dispenser.
The treatments tested for each organoid model were as follows: • (a) Compound of Formula (I) in monotherapy, • (b) carboplatin and etoposide (in a 5:1 ratio, considered as a single treatment), or • (c) Compound of Formula (I) in combination with carboplatin and etoposide, using the following concentrations in a matrix format: compound of Formula (I) in 6 concentrations from 0.047 to 1.5 μM, carboplatin in 6 concentrations from 0.156 to 5 μM, and etoposide in 6 concentrations from 0.031 to 1 μM)). Thus, for the carboplatin and etoposide treatment (considered as a single treatment in this experiment), the lowest concentration of carboplatin was combined with the lowest concentration of etoposide in a 5:1 ratio, the 2nd lowest doses of both reagents were combined, etc., while maintaining the 5:1 ratio. Then, each of these combinations were used either alone (carboplatin/etoposide treatment) or in further combination with each concentration of Compound of Formula (I).
The screening plates were incubated with treatments for 5 days. All treatments were performed in technical triplicates and biological replicates.
Plates were assayed for luminescent Cell Titer Glow (CTG) signal by adding 40 μL of CTG 3D per well by Multidrop dispenser, mixing for 5 mins and incubating for 30 min at room temperature in the dark. Luminescence signal was then measured on Envision plate reader.
The surviving and inhibition rates were calculated as follows for each treatment: […]
For synergy calculations and creation of heatmaps, the Bliss independence model was used on synergyfinder.org (Zheng, S.; Wang, W.; Aldahdooh, J.; Malyutina, A.; Shadbahr, T.; Tanoli Z; Pessia, A.; Jing, T. SynergyFinder Plus: Toward Better Interpretation and Annotation of Drug Combination Screening Datasets. Genomics, Proteomics & Bioinformatics 2022, in press. doi:10.1016/j.gpb.2022.01.004) considering carboplatin/etoposide as a single treatment vs Compound of Formula (I). 9 out of 16 models had bliss synergy scores >5 between Compound of Formula (I) and the carboplatin/etoposide treatment. […]

[5] = system: NCI-H446 tumor cells; experiment: In vitro synergy, CellTiter-Glo viability assay with Bliss synergy method; format: cell-based; conditions: in combination with carboplatin, 72 hours, 9 doses, 0-10 uM and carboplatin 0-300 uM, Bliss score >5 demonstrates synergy
Experimental: NCI-H446 tumor cells were plated at a density of 5000 cells/90 ul in 96 well plates. Cells were treated with Compound of formula (I) and/or carboplatin, either alone or in combination with 9 different doses (3-fold serial dilutions starting at 10 uM for Compound of formula (I) and 300 uM for carboplatin) for 72 hours.

[6] = system: NCI-H1048 SCLC tumor cells; experiment: NCI-H1048 cell line-derived xenograft (CDX) model, tumor growth inhibition; format: in vivo, Balb/c nude mice
Experimental: (§2) Female Balb/c nude mice were inoculated subcutaneously with 5×10^6 NCI-H1048 SCLC tumor cells. Animals were randomized when tumor volume reached approximately 100-150 mm^3. Animals were treated with vehicle (0.5% methycellulose, 1% Tween 80 P.O. and saline I.V.), Compound of formula (I) formulated as a suspension in 0.5% methycellulose and 1% Tween 80 (30 mg/kg QD, P.O.), Carboplatin (50 mg/kg QW, I.V.) or etoposide (25 mg/kg or 12.5 mg/kg QW, I.P.), administered over a 21 day cycle, either alone or in combination (8 animals per group in double combination studies; 10 animals per group in triple combination study). In combination arms, Compound of formula (I) was administered 2 hours prior to chemotherapy. Tumor growth was monitored twice weekly by caliper measurement and tumor volume calculated using the equation V=(L×W×W)/2, where V is tumor volume, L is tumor length (the longest tumor dimension) and W is tumor width (the longest tumor dimension perpendicular to L). During routine monitoring, the animals were checked for any effects of tumor growth and treatments on behavior such as mobility, food and water consumption, body weight gain/loss 3 times a week, eye/hair matting and any other abnormalities. Mortality and observed clinical signs were recorded for individual animals.

[7] = system: SC6 PDX tumors; experiment: SC6 patient derived xenograft (PDX) model, tumor growth inhibition; format: in vivo, athymic nude mice; conditions: for tumor growth inhibition (TGI): 30 mg/kg QD P.O. in combination with etoposide 6 mg/kg QD [3 d on/4 d off] I.P., compared to vehicle control
Experimental: (§3) Female athymic nude mice were inoculated subcutaneously with tumor fragments from SC6 PDX tumors. Animals were randomized when tumor volume reached approximately 60-200 mm^3. Animals were treated with vehicle (0.5% methycellulose, 1% Tween 80 P.O. and saline I.V.), Compound of formula (I) formulated as a suspension in 0.5% methycellulose and 1% Tween 80 (30 mg/kg QD, P.O.), Carboplatin (25 mg/kg QW, I.P.) or etoposide (6 mg/kg QD [3 d on/4 d off], I.P.), administered over a 21 day cycle either alone or in combination (7 animals per group). In combination arms, Compound of formula (I) was administered 2 hours prior to chemotherapy. Tumor growth was monitored twice weekly by caliper measurement and tumor volume calculated using the equation V=(L×W×W)/2, where V is tumor volume, L is tumor length (the longest tumor dimension) and W is tumor width (the longest tumor dimension perpendicular to L). During routine monitoring, the animals were checked for any effects of tumor growth and treatments on behavior such as mobility, food and water consumption, body weight gain/loss 3 times a week, eye/hair matting and any other abnormalities. Mortality and observed clinical signs were recorded for individual animals.

[8] = NCI-H1048 CDX model, tolerability (body weight); format: in vivo
Experimental: as §2

[9] = SC6 PDX model, tolerability (body weight); format: in vivo; conditions: in combination with etoposide
Experimental: as §3

[10] = triple combination with carboplatin and etoposide

N.N.O=C([O-])C1(C(=O)[O-])CCC1.[Pt+2] [carboplatin, reference compound]
TGI effects compared to vehicle [1]: no significant TGI effects

C=CCn1c(=O)c2cnc(Nc3ccc(N4CCN(C)CC4)cc3)nc2n1-c1cccc(C(C)(C)O)n1 [adavosertib]
antitumor activity [2]: limited antitumor activity

Cc1cc(Nc2ncc3c(n2)N(C)CN(c2c(Cl)cccc2Cl)C3=O)ccc1C1CCN(C)CC1 [Compound of formula (I)]
body weight loss [3]: No significant body weight loss
IC50 ([4]; 120 h, monotherapy, 5 days, in 12 out of 16 SCLC organoids): < 1500 nM
inhibition at 1.5 µM ([4]; monotherapy, at 1.5 uM (highest dose tested), in 12 out of 16 SCLC organoids, read-out: maximum inhibition rate (cell death rate)): > 60%
bliss synergy score ([4]; 5 days, in 5 of these models (FIG. 8), highly significant): > 10
bliss synergy score ([4]; 5 days, in 9 out of 16 SCLC organoid models): > 5
synergistic antitumor activity (Bliss synergy) [5]: strong synergistic antitumor activity
tumor growth inhibition (TGI) ([6]; 30 mg/kg QD P.O. in combination with carboplatin 50 mg/kg QW I.V., 21 day cycle, vs vehicle controls, p=0.0026): about 68%
tumor growth inhibition (TGI) ([6]; 30 mg/kg QD P.O. in combination with etoposide (25 mg/kg or 12.5 mg/kg QW I.P.), 21 day cycle, vs vehicle controls, p=0.00015): ~78%
tumor growth inhibition (TGI) ([6]; monotherapy 30 mg/kg QD P.O., 21 day cycle, vs vehicle, p=0.016): up to 54%
tumor growth inhibition (TGI) ([6]; triple combination with carboplatin (50 mg/kg) and etoposide (12.5 mg/kg), compared to carboplatin and etoposide combination, p=0.0043): 44%
tumor growth inhibition (TGI) ([6]; triple combination with carboplatin (50 mg/kg) and etoposide (12.5 mg/kg), compared to vehicle controls, p<0.0001): 72%
tumor response ([6]; triple combination with carboplatin and etoposide, compared to carboplatin and etoposide treatments alone or to the double combination): significantly improved tumor response
tumor growth inhibition (TGI) ([1]; 30 mg/kg QD 3 consecutive days a week P.O. in combination with carboplatin 50 mg/kg QW I.V., compared to vehicle, p=0.028): 67%
TGI effects compared to vehicle [1]: no significant TGI effects
tumor growth inhibition (TGI) ([7]; day 7): 34%
tumor growth inhibition (TGI) ([7]; day 11, p=0.012): 61%
mice remaining below the maximum tumor volume ethical criteria at end of treatment ([7]; in combination with etoposide, end of treatment (21 days), 7 animals per group): 4/7
body weight loss ([8]; in combination with carboplatin 50 mg/kg QW I.V.): No significant body weight loss
body weight loss ([8]; in combination with etoposide QW I.P.): No significant body weight loss
body weight loss ([8]; monotherapy 30 mg/kg QD P.O., 21 day cycle): No significant body weight loss
body weight loss [8, 10]: No significant body weight loss
tolerability [8, 10]: well tolerated
tolerability [9]: well tolerated
body weight loss ([9]; immediately following treatment, all animals recovered quickly): some transient body weight losses
